# Measured values taken from patent US12263187B2, “Treatment of bone marrow pathologies with polysulfated polysaccharides” (PARADIGM BIOPHARMACEUTICALS LTD, priority 2017, dated 2025).
# “Also recorded” adds a separate entry of the source.
# How the values were obtained:
# [1] = fraction of the activity of heparin; cited from earlier work
# [2] = test system: Modic Changes; test: Further work: Modic Changes assessed by MRI after SC PPS twice-weekly for 6 weeks; assay type: in vivo; details: 2 mg/kg PPS or fixed dose of 150 mg, slow SC injection twice-weekly for 6 weeks
# [3] = test system: Knee OA patients with Bone Marrow Edema Lesions; test: Example 1: PPS in knee OA patients with Bone Marrow Edema Lesions on MRI (TGA Special Access Scheme); assay type: in vivo, human; details: standard four week course of PPS
# [4] = test system: person with knee osteoarthritis and subchondral bone marrow edema lesions; test: Example 2: case report of knee osteoarthritis with subchondral BML; assay type: in vivo, human
# Procedure: The patient was administered a course of Pentosan Polysulphate Sodium (PPS) intramuscularly twice weekly for 3 weeks. […] These MRI interpretations corroborate improved clinical outcome measures ensuing therapeutic intervention with PPS.
# A person with a history of arthroscopic partial medial meniscectomy presented with pain of the left knee and was on a waiting list for total knee replacement. […] The BML in the medial femoral condyle measured 11×7×12 mm (CC×transverse×AP) and the medial tibial plateau BML measured 8×8×8 mm (CC×transverse×AP). […] Following patient consent, the pain assessment score was determined by the Numerical Rating Scale (NRS) and functional capacity assessments included the Lysholm knee score. At pre-treatment, the NRS pain score was severe with a score of 8 out of 10 (range 0-10) and the Lysholm Knee score was 37 out of 100 reflecting poor knee function indicated by problems in stair climbing and limping.
# Since PPS is a weak anticoagulant with 1/15 the activity of heparin, the patient was monitored for safety by assessments of complete blood count, APTT, prothrombin time, liver function tests, renal function tests and serum calcium prior to commencement of treatment and periodically during treatment with Pentosan Polysulphate Sodium. The clinical status of the patient was checked regularly throughout the course of the treatment and follow up period.
# After evaluation, the patient was considered suitable for treatment with Pentosan Polysulphate Sodium (PPS) under the SAS. The patient was administered 2 mg/kg of PPS twice weekly with a minimum of three and a maximum of four days between dosages. Six intramuscular injections were administered into the gluteus maximus muscle over a three-week period (2 injections per week). Three follow-up appointments were made at 10, 24 and 38 days post-completion of injection regimen.
# [5] = test system: BMEL; test: Further work: BMEL assessed by MRI after SC PPS twice-weekly for 6 weeks; assay type: in vivo; details: 2 mg/kg PPS or fixed dose of 150 mg, slow SC injection twice-weekly for 6 weeks
# [6] = test system: Knee OA patients with Bone Marrow Edema Lesions; test: Example 1: PPS in knee OA patients with Bone Marrow Edema Lesions on MRI (TGA Special Access Scheme); assay type: in vivo, human; parameters: key to After PPS/BMEL: Severe: (>20 mm); Moderate: (5 mm to 20 mm); Minimal: (<5 mm); Absent; details: for After PPS/BMEL / After PPS/NRS Pain / After PPS/Lysholm Knee Score: 2 mg/kg IM 2x weekly for 3 weeks; for After PPS/NRS Pain / After PPS/Lysholm Knee Score: scored 2 to 4 weeks after last injection; for After PPS/NRS Pain: scale 0-10; for After PPS/Lysholm Knee Score: scale 0-100
# From the text: Example 1 is a study of the safety, tolerability and results of patients treated with PPS with Bone Marrow Edema Lesions of the knee and suffering from osteoarthritis under the TGA Special Access Scheme (B). (Approval to use PPS as treatment for the patient was acquired from Department of Health-Therapeutic Goods Administration, Australian Government under the Special Access Scheme (SAS) since the injectable form of PPS was not a registered product in Australia.)
# Patients in the study had the following characteristics: • High pain scores • Poor joint function scores • MRI evidence of Bone Marrow Edema Lesions and joint effusions • Kellgren-Lawrence (3-4) OA subjects currently on waiting list for Total Knee Replacement • Failed standard of care including intraarticular injections of corticosteroids • The protocol featured the following: • Treatment: 2× weekly intramuscular injections of 2 mg/kg for 3 weeks (total of 6 injections) • All patients abstained from NSAIDs during PPS treatment • The treatment outcomes of pain and function were scored before and after PPS treatment 2 to 4 weeks after the last PPS injection • All patients had baseline subchondral BML.
# Numerical Rating Scale (NRS) is an 11-point scale (0-10). A state of no pain is 0 and the worst pain imaginable is 10.
# Lysholm Knee Score is a total score of 0-100 is calculated based on the results from the eight functional components of the Lysholm knee score scale: Limp (5 points), Support (5 points), Locking (15 points), Instability (25 points), Pain (25 points), Swelling (10 points), Stair climbing (10 points), and Squatting (5 points). The total score is assigned to rating categories as follows: 95-100 indicates excellent, 84-94 indicates good, 65-83 indicates fair and <65 indicates poor function.
# [7] = test system: patient with chronic lower back pain with a Modic Type 1 pattern on MRI; test: Example 3: case report for chronic low back pain with Modic Type 1 pattern; assay type: in vivo, human; details: patient one
# Procedure: Patient one, a person with chronic lower back pain with a Modic Type 1 pattern on MRI scan of the L3/L4 and L4 L5 region of the spine presented in the clinics with unresolved persistent pain despite current standard of care treatment with Mobic, an NSAID.
# The baseline NRS pain score prior to treatment with PPS was a high score of 7. Patient was administered by subcutaneous injection a dose of 150 mg fixed dose of PPS twice weekly for 4 weeks (ie a total of 8 injections). […] During the course of the treatment the patient had abstained from any other therapeutic intervention.
substance,measurement,setting,value
Pentosan Polysulphate Sodium [PPS],anticoagulant activity relative to heparin,[1],1/15
same,Modic Changes as assessed by magnetic resonance imaging,[2],consistent resolution
same,BMEL on MRI,[3],clearly visible BMEL reduction
same,pain and mobility scores,[3],improved
same,bone marrow oedema lesions at the medial femoral condyle and medial tibial plateau on MRI,"[4]; 2 mg/kg IM twice weekly for 3 weeks (6 injections), MRI five weeks after first injection, pre-treatment BML 11x7x12 mm and 8x8x8 mm",resolution of medial compartment bone oedema; also recorded: complete resolution; also recorded: complete reduction
same,knee (joint) effusion on MRI,"[4]; 2 mg/kg IM twice weekly for 3 weeks, axial imaging at level of suprapatellar pouch, five weeks after first injection",reduction in size of knee effusion; also recorded: complete resolution; also recorded: marked reduction; also recorded: reduction in the size
same,adverse events,"[4]; 2 mg/kg IM twice weekly for 3 weeks, during treatment and follow up period",did not present with any drug-related or nondrug-related adverse response; also recorded: did not report any adverse effects; also recorded: no post-treatment adverse events
same,improvement of the Lysholm Knee score,"[4]; 2 mg/kg IM twice weekly for 3 weeks, four weeks after the last injection, 37 to 65",43%
same,Lysholm Knee score post-treatment,"[4]; 2 mg/kg IM twice weekly for 3 weeks, four weeks after the last injection, scale 0-100, pre-treatment score 37",65
same,NRS pain score post-treatment,"[4]; 2 mg/kg IM twice weekly for 3 weeks, scale 0-10, pre-treatment score 8",0
same,BMEL volume as assessed by magnetic resonance imaging,[5],consistent BMEL volume reduction
same,After PPS/BMEL,"[6]; patient four, before PPS: Moderate (5 mm to 20 mm)",Minimal ((<5 mm))
same,After PPS/NRS Pain,"[6]; patient four, before PPS: 4",1
same,After PPS/Lysholm Knee Score,"[6]; patient four, before PPS: 73",90
same,After PPS/BMEL,"[6]; patient three, before PPS: Severe (>20 mm)",Moderate ((5 mm to 20 mm))
same,After PPS/NRS Pain,"[6]; patient three, before PPS: 4",0
same,After PPS/Lysholm Knee Score,"[6]; patient three, before PPS: 54",73
same,After PPS/BMEL,"[6]; patient two, before PPS: Moderate (5 mm to 20 mm)",Absent
same,After PPS/NRS Pain,"[6]; patient two, before PPS: 8",0
same,After PPS/Lysholm Knee Score,"[6]; patient two, before PPS: 37",70
same,adverse events,"[6]; patients with BMEL and osteoarthritis under TGA SAS(B), 2 mg/kg IM 2x weekly",no adverse events were reported
same,pain soon after the 4th injection,[7]; 150 mg fixed dose SC twice weekly,improvement in pain
same,adverse events,"[7]; 150 mg fixed dose SC twice weekly for 4 weeks, during and after treatment",No adverse events
